Patent publication US20240207454A1, “NEURO-BEHAVIORAL ASSAY FOR PHYSIOLOGICAL EVALUATION OF WATER-SOLUBLE ANESTHETICS” (Northeastern University, priority 2022, published 2024)

System: Apteronotus leptorhynchus
Assay: Neuro-behavioral assay: locomotor activity and induction of anesthesia
Assay type: in vivo
Details: for Treatment time until anal fin undulation and opercular movement ceased, including transfer to and from the beaker: 2.5% urethane or 0.02% MS-222 immersion
Protocol: FIG. 30 Locomotor activity inferred from amplitude fluctuations of the EOD. After recording of the baseline EOD for 6 min, the fish was transferred to a 0.02% MS-222 solution in aquarium water for 5 min. After return of the fish to its home tank, the EOD recording continued for 15 min. To determine the locomotor activity index, positive and negative deviations from an arbitrarily set threshold value of the amplitude were determined every 1 sec, and the standard deviation of the absolute values of these amplitude deviations were calculated for 30-sec time windows. […] Recovery of the locomotor activity occurred within some 2 min after the fish was returned to its home tank (filled circles).
The experimental design is outlined in FIG. 2. To determine the baseline EOD frequency, the fish's EOD was recorded for 30 min. Then, the fish was transferred into a glass beaker containing either 2.5% urethane (Acros Organics, New Jersey, USA) or 0.02% MS-222 (Western Chemical, Washington, USA), each dissolved in water from the fish's isolation tank. As a control, the fish was moved into an identical glass beaker containing aquarium water only. The temperatures of the anesthetic solutions or the aquarium water in the beaker were similar (±1° C.) to the temperature of the water in the fish's isolation tank.
The fish was left in the anesthetic solution until both anal fin undulation and opercular movement ceased. It was then returned to its isolation tank where recording of the EOD continued for 180 min. For urethane anesthesia, treatment including transfer to and from the beaker took between 4-5 min. MS-222 anesthesia required longer exposure to the anesthetic so that the entire treatment lasted between 9-15 min. Control experiments were designed such that the handling of the fish and the time the fish spent outside its isolation tank were similar to the corresponding anesthesia experiments (urethane control: 5-8 min; MS-222 control: 7-10 min).
To examine the effect of eugenol on EOD frequency and chirping behavior, the following experiments were conducted using 8 fish (FIG. 11): First, the baseline EOD was recorded in the fish's home tank (50 cm×30 cm×30 cm) for 30 min. Then, for the 5-min treatment session, the shelter tube with the fish was transferred to a smaller (experimental) tank (30 cm×20 cm×20 cm) containing either eugenol dissolved in aquarium water at a certain concentration (30 μL/L, 45 μL/L, or 60 μL/L; ‘test condition’) or aquarium water only (‘control condition’). The temperature in the experimental tank was similar to the temperature in the home tank (median difference: ±0.2° C.). Finally, the shelter tube with the fish was returned to the home tank, where recording continued for 180 min. Throughout the 215 min of pre-treatment, treatment, and post-treatment, the recording of the EOD was interrupted only for a few seconds during which the fish was transferred between its home tank and the experimental tank. The order of the four treatment conditions was determined using a randomized complete block design. Each test or control experiment in a given fish was conducted on a different day.
Most of the time, fish in the shelter tube maintained an upright position, with their longitudinal axis parallel to the walls of the tube. Forward and backward swimming occurred frequently and appeared to be mediated primarily by high-frequency undulations of the anal fin. Sporadically, the fish made 180° turns around its vertical axis.
Neuro-Behavioral Assay extended to the monitoring of locomotor activity. The electric organ discharge (EOD) that is recorded as the assayed behavior contains not only information about the frequency and possible modulations of the EOD (‘chirps’) but also about the locomotor activity of the fish. […]

[1] = 0.02% MS-222, 5 min exposure (FIG. 30)

Row | Structure (SMILES) | Fish in which anal fin continued undulating throughout the 5-min exposure (30 μL/L eugenol) | Time after which body movements ceased (mean) (30 μL/L eugenol, 8 fish) [min] | Time after which body movements ceased (range) (30 μL/L eugenol, 8 fish) [min] | Time after which anal fin undulation stopped (30 μL/L eugenol, the 5 fish in which it stopped) [min] | Time to anesthesia (total loss of equilibrium and cessation of any movement, including anal fin undulation) (45 μL/L and 60 μl/L eugenol) [min] | Fish in which anal fin continued undulating throughout the 5-min exposure (45 μL/L eugenol) | Time after which body movements ceased (mean) (45 μL/L eugenol, 8 fish) [min] | Time after which body movements ceased (range) (45 μL/L eugenol, 8 fish) [min] | Time after which anal fin ceased undulating (45 μL/L eugenol, the 7 fish in which it ceased) [min] | Time after which body movements ceased (each fish) (60 μL/L eugenol, 8 fish) [min] | Time from start of exposure until locomotor activity drops dramatically [1] [min] | Time to recovery of locomotor activity after return to home tank [1] [min] | Treatment time until anal fin undulation and opercular movement ceased, including transfer to and from the beaker [min]
1 | C=CCc1ccc(O)c(OC)c1 [eugenol] | 3 out of 8 | 1.8 | 1 to 3 | 1 to 3 | 1 to 4 | 1 out of 8 | 1.4 | 1 to 2 | 1 to 3 | 1 | – | – | –
2 | CCOC(=O)c1cccc(N)c1 [MS-222, 3-aminobenzoic acid ethyl ester methanesulfonate] | – | – | – | – | – | – | – | – | – | – | ≤ 2 | ≤ 2 | 9 to 15
3 | CCOC(N)=O [urethane] | – | – | – | – | – | – | – | – | – | – | – | – | 4 to 5
